Consider 5 compounds from patent US10981892B2, “Acyl sulfonamides that are Bcl family antagonists for use in clinical management of conditions caused or mediated by senescent cells and for treating cancer” (Unity Biotechnology, Inc., priority 2018, dated 2021).

“Also recorded” adds a separate entry of the source.

Data set [1] deals with cigarette smoke induced COPD model, 3MR or INK-ATTAC mice. The experiment in a line: Cigarette smoke (CS) induced COPD model, oxygen saturation. In kind it is in vivo, mouse. As to conditions: after two months of cigarette smoke exposure, compared with untreated controls. Here is the method:
As a model for chronic obstructive pulmonary disease (COPD), mice were exposed to cigarette smoke. The effect of a senolytic agent on the mice exposed to smoke is assessed by senescent cell clearance, lung function, and histopathology. The mice used in this study include the 3MR strain, described in US 2017/0027139 A1 and in Demaria et al., Dev Cell. 2014 Dec. 22; 31(6): 722-733. […] The enzyme in the transgene is placed under control of the p16 promoter, which causes it to be specifically expressed in senescent cells. Treatment of the mice with GCV eliminates senescent cells. Other mice used in this study include the […] strain, described in US 2015/0296755 A1 and in Baker et al., Nature 2011 Nov. 2; 479(7372):232-236. The […] mouse has a transgene encoding switchable caspase 8 under control of the p16 promoter. The caspase 8 can be activated by treating the mice with the switch compound AP20187, whereupon the caspase 8 directly induces apoptosis in senescent cells, eliminating them from the mouse. To conduct the experiment, six-week-old 3MR (n=35) or […]=35) mice were chronically exposed to cigarette smoke generated from a Teague TE-10 system, an automatically-controlled cigarette smoking machine that produces a combination of side-stream and mainstream cigarette smoke in a chamber, which is transported to a collecting and mixing chamber where varying amounts of air is mixed with the smoke mixture. The COPD protocol was adapted from the COPD core facility at Johns Hopkins University (Rangasamy et al., 2004, J. Clin. Invest. 114:1248-1259; Yao et al., 2012, J. Clin. Invest. 122:2032-2045). Mice received a total of 6 hours of cigarette smoke exposure per day, 5 days a week for 6 months. Each lighted cigarette (3R4F research cigarettes containing 10.9 mg of total particulate matter (TPM), 9.4 mg of tar, and 0.726 mg of nicotine, and 11.9 mg carbon monoxide per cigarette [University of Kentucky, Lexington, Ky.]) was puffed for 2 seconds and once every minute for a total of 8 puffs, with the flow rate of 1.05 L/min, to provide a standard puff of 35 cm3. The smoke machine was adjusted to produce a mixture of side stream smoke (89%) and mainstream smoke (11%) by smoldering 2 cigarettes at one time. The smoke chamber atmosphere was monitored for total suspended particulates (80-120 mg/m3) and carbon monoxide (350 ppm). […] An equal number of mice received the corresponding vehicle. […] After two months of cigarette smoke (CS) exposure, lung function was assessed by monitoring oxygen saturation using the MouseSTAT PhysioSuiteTM pulse oximeter (Kent Scientific). […] Mice were monitored for 30 seconds and the average peripheral capillary oxygen saturation (SpO2) measurement over this duration was calculated.

The conditions of data set [2]: background statement; cited from earlier work.
The test system of data set [3] is osteoarthritis model, C57BL/6J mice. The experiment in a line: Osteoarthritis model (ACL surgery), intra-articular injection. The data set is classed as in vivo, mouse. Here is the method: This example illustrates the testing of an MDM2 inhibitor in a mouse model for treatment of osteoarthritis. It can be adapted mutatis mutandis to test and develop Bcl inhibitors for use in clinical therapy.
The model was implemented as follows. C57BL/6J mice underwent surgery to cut the anterior cruciate ligament of one rear limb to induce osteoarthritis in the joint of that limb. During week 3 and week 4 post-surgery, the mice were treated with 5.8 μg of Nutlin-3A (n=7) per operated knee by intra-articular injection, q.o.d. for 2 weeks. At the end of 4 weeks post-surgery, joints of the mice were monitored for presence of senescent cells, assessed for function, monitored for markers of inflammation, and underwent histological assessment.
Two control groups of mice were included in the studies performed: one group comprising C57BL/6J or 3MR mice that had undergone a sham surgery (n=3) (i.e., surgical procedures followed except for cutting the ACL) and intra-articular injections of vehicle parallel to the GCV (ganciclovir) treated group; and one group comprising C57BL/6J or 3MR mice that had undergone an ACL surgery and received intra-articular injections of vehicle (n=5) parallel to the GCV-treated group. RNA from the operated joints of mice from the Nutlin-3A treated mice was analyzed for expression of SASP factors (mmp3, IL-6) and senescence markers (p16). qRT-PCR was performed to detect mRNA levels.
Function of the limbs was assessed 4 weeks post-surgery by a weight bearing test to determine which leg the mice favored. The mice were allowed to acclimate to the chamber on at least three occasions prior to taking measurements. Mice were maneuvered inside the chamber to stand with one hind paw on each scale. The weight that was placed on each hind limb was measured over a three second period. At least three separate measurements were made for each animal at each time point. The results were expressed as the percentage of the weight placed on the operated limb versus the contralateral unoperated limb.

The test system of data set [4] is atherosclerosis model, LDLR-/- mice. The experiment in a line: Atherosclerosis model, LDLR-/- mice fed a high fat diet, systemic administration. In kind it is in vivo, mouse. The method, then:
This example illustrates the testing of an MDM2 inhibitor in a mouse model for treatment of atherosclerosis. The test compounds are administered systemically rather than locally. The model is done in an LDLR−/− strain of mice, which are deficient in the receptor for low-density lipoprotein. The experiments described here can be adapted mutatis mutandis to test and develop other types of inhibitors for use in clinical therapy.
Two groups of LDLR−/− mice (10 weeks) are fed a high fat diet (HFD) (Harlan Teklad TD.88137) having 42% calories from fat, beginning at Week 0 and throughout the study. Two groups of LDLR−/− mice (10 weeks) are fed normal chow (−HFD). From weeks 0-2, one group of HFD mice and —HFD mice are treated with Nutlin-3A (25 mg/kg, intraperitoneally). One treatment cycle is 14 days treatment, 14 days off. Vehicle is administered to one group of HFD mice and one group of −HFD mice. At week 4 (timepoint 1), one group of mice are sacrificed and to assess presence of senescent cells in the plaques. For the some of the remaining mice, Nutlin-3A and vehicle administration is repeated from weeks 4-6. At week 8 (timepoint 2), the mice are sacrificed and to assess presence of senescent cells in the plaques. The remaining mice are treated with Nutlin-3A or vehicle from weeks 8-10. At week 12 (timepoint 3), the mice are sacrificed and to assess the level of plaque and the number of senescent cells in the plaques.
Plasma lipid levels were measured in LDLR−/− mice fed a HFD and treated with Nutlin-3A or vehicle at timepoint 1 as compared with mice fed a —HFD (n=3 per group). Plasma was collected mid-afternoon and analyzed for circulating lipids and lipoproteins.
At the end of timepoint 1, LDLR−/− mice fed a HFD and treated with Nutlin-3A or vehicle were sacrificed (n=3, all groups), and the aortic arches were dissected for RT-PCR analysis of SASP factors and senescent cell markers. Values were normalized to GAPDH and expressed as fold-change versus age-matched, vehicle-treated LDLR−/− mice on a normal diet.
At the end of timepoint 2, LDLR−/− mice fed a HFD and treated with Nutlin-3A or vehicle (n=3 for all groups) were sacrificed, and aortic arches were dissected for RT-PCR analysis of SASP factors and senescent cell markers. Values were normalized to GAPDH and expressed as fold-change versus age-matched, vehicle-treated LDLR−/− mice on a normal diet.
At the end of timepoint 3, LDLR−/− mice fed a HFD and treated with Nutlin-3A or vehicle (n=3 for all groups) were sacrificed, and aortas were dissected and stained with Sudan IV to detect the presence of lipid. Body composition of the mice was analyzed by MRI, and circulating blood cells were counted by Hemavet™.

Take `CC1(C)CCC(c2ccc(Cl)cc2)=C(CN2CCN(c3ccc(C(=O)NS(=O)(=O)c4ccc(N[C@H](CCN5CCOCC5)CSc5ccccc5)c(S(=O)(=O)C(F)(F)F)c4)cc3)CC2)C1` [ABT-263, Navitoclax]: the SpO2 levels result in data set [1] is “statistically significant increases”.
Consider `CN(C)CC[C@H](CSc1ccccc1)Nc1ccc(S(=O)(=O)NC(=O)c2ccc(N3CCN(Cc4ccccc4-c4ccc(Cl)cc4)CC3)cc2)cc1[N+](=O)[O-]` [ABT-737], for which the “dose-limiting toxicity in human patients” value in data set [2] is “dose-limiting thrombocytopenia”.
For the compound `CC[C@H](C(=O)N1CCCC[C@H]1C(=O)O[C@H](CCc1ccc(OC)c(OC)c1)c1cccc(OCC(=O)NCC(CNC(=O)COc2cccc([C@@H](CCc3ccc(OC)c(OC)c3)OC(=O)[C@@H]3CCCCN3C(=O)[C@@H](CC)c3cc(OC)c(OC)c(OC)c3)c2)CN(C)C)c1)c1cc(OC)c(OC)c(OC)c1` [AP2018], in data set [1], the SpO2 levels entry is reported as “statistically significant increases”.
As to `COc1ccc(C2=N[C@@H](c3ccc(Cl)cc3)[C@@H](c3ccc(Cl)cc3)N2C(=O)N2CCNC(=O)C2)c(OC(C)C)c1` [Nutlin-3A], the “clearance of senescent cells from the joint” value in data set [3] (5.8 μg per knee intra-articular) is recorded as “cleared senescent cells from the joint”. Further, the “weight bearing: favoring of unoperated over operated hind limb” value in data set [3] (4 weeks post-surgery) is “abrogated this effect”. Besides, the “histopathology: destruction of the proteoglycan layer” value in data set [3] (joint tissue after ACL surgery) is “completely abrogated this effect”. Also, the “expression of p16, IL-6, and MMP13 in the tissue” value in data set [3] (operated joint, qRT-PCR, 4 weeks post-surgery, 5.8 μg per knee intra-articular q.o.d. 2 weeks) was “reduced the expression back to below the level of the controls; also recorded: ameliorated”. In addition, in data set [4] (HFD, multiple treatment cycles, 25 mg/kg i.p., RT-PCR), the “expression of SASP factors and senescent cell markers in aortic arch, timepoint 2” value is reported as “reduced expression of most markers”. For the same compound, the “expression of SASP factors and senescent cell markers in aortic arch, timepoint 1” value in data set [4] (HFD, one treatment cycle, 25 mg/kg i.p., MMP3, MMP13, PAI1, p21, IGFBP2, IL-1A, IL-1B, RT-PCR) is “reduced expression of several SASP factors and senescent cell markers”. For the same compound, the “reduction of surface area covered by plaques in the descending aorta” value in data set [4] (HFD, timepoint 3 (week 12), Sudan IV staining) is reported as “about 45%”. The “mass and body fat composition” value in data set [4] (mice fed the high fat diet, MRI, timepoint 3) was “decreased”. For the same compound, the “platelet and lymphocyte counts versus vehicle treated mice” value in data set [4] (timepoint 3, Hemavet) is listed as “equivalent”. For the same compound, in data set [1], the SpO2 levels entry is reported as “statistically significant increases”.
Consider `Nc1nc(O)c2ncn(COC(CO)CO)c2n1` [ganciclovir], for which the SpO2 levels result in data set [1] is given as “statistically significant increases”.
